What was measured:
[1] = UPLC-MS/MS quantification of berberine and metabolites in ileal and caecal content; format: in vivo, Ross 308 broiler chickens; details: 21 days
From the text: The study was undertaken following the guidelines of the ethics committee of the Faculty of Veterinary Medicine and Bioscience Engineering, Ghent University, in accordance with the EU Directive 2010/63/EU. One-day-old Ross 308 male broilers were obtained from a local hatchery and housed in pens on wood shavings. They were allotted into 4 groups, with three replicate pens per group each housing 8 chickens. The animals were not vaccinated. Water and commercial starter feed (day 1–12, FARM 1 Mash, Country’s Best, Versele Laga, Deinze, Belgium) or grower (day 13–21, FARM 2 mash, Country’s Best, Versele Laga, Deinze, Belgium) were provided ad libitum. The control group received the standard non-supplemented diets, whereas the chickens in other groups were fed the same feed supplemented with 0.1, 0.5 or 1 g berberine/kg feed throughout the whole trial period. At day 21, 4 birds per pen were weighted then euthanized by sodium pentobarbital injection for sampling. Individual jejunal, ileal, caecal and colonic contents were stored at −20°C for microbiota composition analysis (16S rRNA gene sequencing). Additionally, ileal and caecal content samples were collected and stored at −20°C for berberine and berberine-derived metabolite quantification. Duodenal tissue samples were collected and fixed in 4% phosphate buffered formaldehyde for histological analysis. Blood samples were collected in heparin tubes and centrifuged at 524 g for 10 min to recover the plasma fraction, which was further mixed with 17 mg/mL L-ascorbic acid for dihydroberberine stabilization, and stored at −20°C for berberine and berberine-derived metabolite quantification.
The column temperature was maintained at 25°C. The autosampler temperature was set at 10°C.
250 mg of ileal or caecal content was weighed in a 15 mL polypropylene centrifuge tube and 250 µL of ascorbic acid 170 mg/mL solution was added for stabilization of dihydroberberine, followed by brief vortexing. Subsequently, 25 µL of an internal standard solution containing 250 μg/mL of berberine-d6 and 2.5 μg/mL tetrahydropalmatine were added, followed by brief vortexing. A 2.5 mL volume of extraction solvent was then added, consisting of a 1% (v/v) formic acid solution in methanol. The sample was put on a rotary shaker set at 80 rpm for 20 min, followed by centrifugation (3,720 g, 10 min, 4°C). The supernatant was then diluted, by a factor 5 for measurement of low abundance components, and by a factor 2,000 for measurement of high abundance components. The 1/5 diluted sample extract was prepared directly in an autosampler vial as follows: 200 µL sample extract were mixed with 100 µL ascorbic acid 170 mg/mL solution and 700 µL Milli-Q water. For the 1/2,000 diluted sample extract, an intermediate 1/100 sample dilution was prepared by combining 500 µL sample extract and 49.5 mL of Milli-Q water. 50 μL was then transferred in an autosampler vial followed by the addition of 950 µL of Milli-Q water. For both dilutions, a 5 µL sample aliquot was injected onto the UPLC-MS/MS apparatus. Quantification was based on the ratio of the analyte peak area compared to the peak area of the internal standard tetrahydropalmatine for 1/5 diluted sample extracts, and on the ratio of the analyte peak area compared to the peak area of the internal standard berberine-d6 for 1/2,000 diluted sample extracts.
Calibration standards and quality control samples were prepared as follows: 250 mg of blank ileal or caecal content were supplemented with 250 µL of ascorbic acid 170 mg/mL solution, 25 µL mixed solution of berberine and metabolites (with the exception of dihydroberberine) at different levels, 25 µL of dihydroberberine solution, stabilized with 17 mg/mL ascorbic acid, at different levels and 25 µL of an internal standard solution containing 0.625 μg/mL of berberine-d6 and 2.5 μg/mL tetrahydropalmatine. The calibration curve was in the 62.5–5,000 ng/g range, and included 62.5, 125, 250, 500, 1,000, 2,500, and 5,000 ng/g levels. […]

[2] = tested on: Eubacterium limosum (LMG 28910); details: LMG 28910, chicken, 10 µg/mL, pH 6
Protocol: Six strains were tested for their ability to convert berberine into berberine-demethylated metabolites. […] Strains were sub-cultured overnight in M2GSC medium pH 6. The next day, caecal content from a 3-week-old broiler chicken was sampled in anaerobic conditions and 1:1,000 diluted in M2GSC medium pH 6 containing 10 μg/mL berberine. Caecal mixtures were enriched with 1:100 diluted overnight cultures of single bacteria, or with M2GSC (control), and incubated in a 24-well plate, for 48 h. […] Samples were collected and processed as described before. Each bacterial strain was tested in triplicate at 37°C–40°C under anaerobic conditions.
The UPLC instrument consisted of an Acquity H-Class Quaternary Solvent Manager and an Acquity FTN Sample Manager (Waters, Berchem, Belgium). For chromatographic separation, an Acquity UPLC® HSS T3 column (1.8 µm, 100 mm × 2.1 mm i.d.) was used, protected by a precolumn of the same type (VanGuardTM, 5 mm × 2.1 mm i.d.), both from Waters. […] The column temperature was maintained at 25°C. The autosampler temperature was set at 10°C. The UPLC effluent was sent from 1.2 min to 9.5 min by use of a divert valve to a Xevo TQ-S® triple quadrupole mass spectrometer from Water, equipped with an ESI ion source operating in the positive ionization mode from. The UPLC-MS/MS analysis was run under control of MassLynx software (v4.1), which was used for subsequent data processing as well. For the injection of 1/5 diluted intestinal content samples (see section Preparation of intestinal content samples (ileum and caecum)), the divert valve was used in addition from 7.1 min to 8.4 min to deviate the high amount of berberine and associated IS berberine-d6 eluting in that time window from the UPLC column directly to the waste, rather than to the MS detector to avoid oversaturation of the instrument, influencing subsequent sample extract injections at well. Operating conditions for the ESI source used in the positive ionization mode were optimized by direct infusion of all individual components in combination with the mobile phase at 50% A/50% B delivered at a flow rate of 0.3 mL/min. The following tune parameters were used for detection of all components: capillary voltage, 3 kV, cone voltage, 10 V, source offset, 50 V, source temperature, 150°C, desolvation temperature, 500°C, desolvation gas flow, 800 L/h, cone gas flow, 150 L/h, collision gas flow, 0.2 mL/min, ion energy 1 and 2, 0.5, LM 1 and LM 2 resolution, 3, HM 1 and HM 2 resolution, 15. Components were detected in MS/MS mode using component specific MRM (Multiple Reaction Monitoring) transitions (Supplementary Table S1). Since a commercial standard of thalifendine was not available, MS/MS detection parameters and calibration of berberrubine were used for the detection and quantification of thalifendine, which is a reasonable approach, since both compounds are isomers. No commercial reference standards were available for phase II metabolites, therefore “calculated” MRM transitions were defined as follows: [M + -Gluc] > M+ for glucuronide forms and [M + -SO3] > M+ for sulfate forms, where the loss of glucuronic acid or sulfate corresponded to a mass shift of 176 Da or 80 Da respectively. Phase II metabolites were quantified relatively using the berberine calibration curve ([Wang et al., 2017a]; [Kwon et al., 2020]).

| Compound | Ratio caecum / ileum (concentration) ([1]; 0.1 g berberine/kg feed) | Ratio caecum / ileum (concentration) ([1]; 0.5 g berberine/kg feed) | Ratio caecum / ileum (concentration) ([1]; 1 g berberine/kg feed) | Log2(fold change) of metabolite response at 48 h, culture with bacteria over control (berberine-medium + microbiota) [2] |
| --- | --- | --- | --- | --- |
| COc1ccc2cc3[n+](cc2c1OC)CCc1cc2c(cc1-3)OCO2 [Berberine, Berberine chloride] | 0.07 | 0.14 | 0.22 |  |
| COc1ccc2cc3[n+](cc2c1O)CCc1cc2c(cc1-3)OCO2 [Berberrubine, berberrubine chloride] | 21.43 | 29.98 | 63.80 | -0.40 |
| COc1cc2c(cc1O)CC[n+]1cc3c(OC)c(OC)ccc3cc1-2 [Jatrorrhizine, Jatrorrhizine chloride] | 0.31 | 0.49 | 0.72 | 0.11 |
